Assays:
G1 [1] = experiment: Time-dependent FL of G1 folding; type: biochemical, human
Protocol: Time-dependent FL was measured on a FluostarOptima multifunctional microplate reader (BMG Labtechnologies) with λex/λem set at 350/470 nm. To gain insight into dynamics of the folding process of G1, time-dependent FL measurements are performed. Solutions containing TTAPE and G1 are first incubated for 30 min to ensure complete dye/DNA complexation and transferred to a 96-well microtiter plate after incubation. Appropriate amounts of metal ions were added by an automatic injection mode. Kinetic measurements were performed at 20° C. and the FL data were recorded in every 4 s. The change in the emission intensity (1) of the solution after the addition of K^+ can be fitted by a second-order exponential curve: I=A1e^−t/τ1+A2e^−t/τ2+c Eq. (1) where t is the time, τ1 and r2 are the time constants of FL recovery, A^1 and A^2 are the respective amplitudes (the folding process is characterized by negative A values), and c is the FL intensity at t=infinity. Mean time constant (<τ>) was calculated according to eq. 2:
In one embodiment, a solution of potassium chloride is then injected at time t=0 (automatic injection mode) and the emission intensity at 470 nm is monitored. The emission drops abruptly to ˜30% of its original intensity at the beginning but starts to recover after ˜8 s and finally reaches a plateau at ˜320 s (FIG. 42). […]

H21 = experiment: Job plots for the binding of TTAPE to H21
Protocol: The sum of TTAPE and DNA concentrations was kept at 10 μM. Fluorescent intensities for the bound TTAPE at 470 nm are normalized to the maximum increase in each case. The y-axis represents the difference in PL intensity for mole fraction of ligand (χL) in DNA. Intercept mole fraction values were determined from least-squares fits to the linear data portions, giving yjni values of 0.50 (1:1 stoichiometry) for H21 in K-Tris, 0.67 […] for H21 in Na-Tris, and 0.75 […] for H21 in Tris-HCl, respectively.

[2] = test system: ctDNA/RNA from torula yeast/BSA; experiment: Fluorescence increments / binding isotherm with ctDNA, RNA and BSA; details: dye 5 μM
Protocol: FIG. 8 illustrates increments of fluorescence of TPE-C2N^+ (8), N+C2-TPE-C2N^+ (9), TPE-C4N^+ (10), N+C4-TPE-C4N^+ (11) when binding with 10 μg/ml ctDNA/10 μg/ml RNA diethylaminoethanol (DEAE) salt from torula yeast/10 μg/ml RNA from torula yeast in buffer solution pH=7. Concentration of dyes: 5 μM; excitation wavelength: 350 nm. The four cationic TPE derivatives display larger FL enhancement in the presence of DNA than that of RNA.
FIG. 9 illustrates the binding isotherm of N+C2-TPE-C2N^+ (5 μM) to ctDNA/RNA from torula yeast/BSA (plot of the fluorescence intensity at 470 nm for ctDNA/RNA, and at 467 nm for BSA) in aqueous phosphate buffer (pH=7.0).

HG21 DNA = experiment: CD spectra: G-quadruplex induction by TPE derivatives; type: biochemical; details: 9 μM DNA, 4.5 μM TPE derivative, Tris-HCl pH 7.5, 25 °C
Protocol: [TPE]=4.5 μM; [HG21]=9 μM and [K^+]=0.5 M.
CD spectral profiles of 9 μM DNA in 5 mM Tris-HCl buffer solutions (pH 7.5) incubated under 25° C. with four different TPE derivatives at 4.5 μM or with 0.5M K^+ ions are studied (FIG. 77). TPE derivatives 1-4 are TTAPE (Example 6), TPE-2 (chemical structure is not shown herein), TPE-3 (chemical structure is not shown herein) and TPE-C2N+ (Example 3), respectively. […] On the other hand, DNA incubated with TTAPE or the known quadruplex inducer; K^+ ions have very similar spectral profiles, while the ellipticities of DNA/TTAPE are somehow weaker than DNA/K^+.

G1 [3] = experiment: PAGE assay of G1, gel poststaining; set-up: species or system human; details: gel poststained with 10 μM TTAPE for 5 min
Protocol: The FL “turn-on” switching of TTAPE by binding to G1 strand inspires us to check whether it can be used as a DNA marker in the PAGE assay. Electrophoresis assay of G1 was performed on a Hoefer miniVE system in 1xTBE buffer under nondenaturing conditions using a 20% native poly(acrylamide) gel at 100V for 3 h at […]. An AlphaDigiDoc™ system with a DE-500 MultiImage™ II light cabinet and an ML-26 UV transilluminator (Alpha Innotech) was used for data collection and analysis. The gel was poststained with a 10 μM TTAPE solution for 5 min at room temperature, rinsed with distilled water, and photographed under UV light at 290-330 nm by the gel documentation system. EB was used to poststain the gel in parallel for comparison. Concentrations of G1 in the range of 0.5-10.0 μM were used to check the visualizability of the dye-stained DNA in the PAGE assay.
After running PAGE of G1 in a Tris-borate-ethylene-diaminetetraacetic acid (TBE) buffer, the gel is stained by a TTAPE solution for 5 min. […] Ethidium bromide (EB) is a widely used visualization agent for PAGE assay. […] The G1 bands are not visualized until the gel has been stained by EB for as long as 30 min. Band visualization by EB is usually realized by its intercalation into the hydrophobic region of DNA, which makes the staining a slow process. […]

## CC[N+](CC)(CC)CCOc1ccc(C(=C(c2ccc(OCC[N+](CC)(CC)CC)cc2)c2ccc(OCC[N+](CC)(CC)CC)cc2)c2ccc(OCC[N+](CC)(CC)CC)cc2)cc1.[Br-].[Br-].[Br-].[Br-] [TTAPE, 1,1,2,2-tetrakis[4-(2-triethylammonioethoxy)phenyl]ethene tetrabromide]
G1 [1]; K+ 0.5 M injected into TTAPE/G1, 470 nm, 20 °C
  Weighted mean time constant (<τ>) of FL recovery: 116 s
G1 [1]; K+ injected into TTAPE/G1, 470 nm
  Time at which recovered emission reaches a plateau: ~320 s
H21; H21 in K-Tris buffer pH 7.50
  Job plot intercept mole fraction: 0.50
H21; H21 in Na-Tris buffer pH 7.50
  Job plot intercept mole fraction: 0.67
H21; H21 in Tris-HCl buffer pH 7.50
  Job plot intercept mole fraction: 0.75
[2]; 10 μg/ml ctDNA or RNA
  Variety of FL in presence of DNA and RNA compared with TPE-C2N+ and TPE-C4N+: much larger variety of FL
[2]; aqueous phosphate buffer pH 7.0
  Relative affinity to DNA, RNA and proteins: larger affinity to DNA than to RNA and proteins
HG21 DNA
  G-quadruplex induction (CD spectral profile): acts as an internal quadruplex inducer under 25 °C
G1 [3]
  Detectable G1 concentration (sensitivity test): 0.5 µM
